Results: US10213449B2, “Compositions and methods for treating medulloblastoma” (The Board of Trustees of the Leland Stanford Junior …, priority 2016, dated 2019)
“Also recorded” adds a separate entry of the source.

Tests used:
[1] = tested on: GNP proliferation / cerebellum; assay: CK2 inhibition in developing mouse (cerebellar development); assay type: in vivo; settings: mice injected with TBB between P3-P7 (30 mg/kg IP bid)
Experimental: The role of CK2 in cerebellar development was next investigated by injecting mice with the CK2 inhibitor TBB between P3-P7 (FIG. 2e).
Math1/nGFPtransgenic mice^8 were treated with DMSO or TBB (30 mg/kg IP bid) (EMD 218697) from […] then sacrificed 6 h following their final treatment. Brains were dissected, fixed in 4% PFA overnight then transferred into 20% sucrose for 24 h. Sections were mounted in O.C.T and sectioned at 20 μm then air-dried for 20 min prior to storing at −20° C. for up to 2 months. Sections were blocked in 0.2% triton X-100 and 2% goat serum diluted in sterile PBS for 1 h at RT. Primary antibodies used were: anti-NeuN Ab (1:200, COT: 2459079, EMD Millipore), anti-Tag1 Ab (1:100, antibody derived in the Scott lab) and TUNEL staining as per manufacturers instructions (Roche In situ Cell Death Detection Kit, cat. no. 1 684 809). All sections were incubated in primary antibody overnight at 4° C. and counter-stained with Hoechst33258 (final concentration 1 μl/ml in PBS) at RT for 10 min. Images were taken on a Leica TCS SP8 confocal microscope. Images were randomized and all measurements (length, width, Atoh-1, Tag1, TUNNEL staining) were performed by a blinded collaborator. Cerebellar folia length was compared between matched sections of control and treated mice by measuring the maximal length from the mid-base to the tip of the culmun (lobule 4/5). Culmen width was measured […] from the base of the folia between lobules 5 and 6. Prism statistical analysis software was used (GraphPad Software, CA) to calculate significance as determined by two-tailed T-tests.

[2] = tested on: Hh signaling in NIH 3T3 cells exposed to Shh; assay: RT-qPCR of Hh target transcripts in Shh-stimulated NIH 3T3 cells; assay type: cell-based, mouse
Experimental: NIH3T3s or SUFU−/− MEFs were plated in 6 well plates at 400,000 cells/well in 10% FBS media constituted of DMEM (Invitrogen11960-069) supplemented with 10% FBS (Hyclone Labs SH30070.02), pen/strep (Life Technologies 15140-122), sodium pyruvate (Invitrogen 11360-070) and glutamax (Invitrogen 35050-061). Cells were then starved in 0.5% FBS for 24 h prior to treatment with 25% ShhN conditioned media in 0.5% FBS+/− drug treatment. GliΔN were treated 48 h post transfection. Unless otherwise stated, all treatments were performed for 6 h. Cell lysis and RNA extraction was performed using Qiashredder homogenizers (Qiagen 79654) and RNEasy mini kits (qiagen 74104) as per manufacturer's instructions. RNA was quantified on a nanodrop spectrophotometer (nanoddrop technologies ND-2000C). Transcript quantification was performed using a TaqMan RNA-to-Ct 1-Step Kit (Life technologies, 4392656) and the Applied Biosystems 7500 RT-PCR system as per the manufacturer's instructions. All primers were commercially available TaqMan® Gene Expression Assay probes purchased from Life Technologies (csnk2a1: Mm00786779_s1, csnk2a2: Mm01243455_m1, csnk2b: Mm00487216_m1, Gli1: Mm00494654_m1, Gli2: Mm.273292, Ccnd1: Mm.273049, Ptch: Mm00436047_m1).

Hh signaling in GNPs = assay: Transcript levels in GNPs following Hh stimulation; assay type: cell-based, mouse
[3] = tested on: MB cell lines (MB55, MB21, MB53); assay: Cell viability of MB cell lines (CellTiter-Glo); assay type: cell-based, mouse; settings: multiple MB cell lines derived from Ptch1+/− and Ptch1+/−; Trp53−/− mice
Experimental: Ptch+/−MB cell lines MB55 and MB21 were kindly gifted from Dr. Rosalind Segal (Dana Farber Cancer Institute, Harvard Medical School) and Ptch^+/−; p53^−/− MB53 cells were kindly gifted from Charles Rudin (Memorial Sloan-Kettering Cancer Center). All cell lines were validated for high Gli activity. Cell viability was assessed using CellTiter-Glo (G7573, Promega, WI, USA) according to the manufacturers instructions. Cells were plated at 10000 cells/well in 96-well plates, treated with drugs as indicated and data was collected on a TECAN Infinite 200 plate reader.

[4] = tested on: Medulloblastoma cell lines (MB53, MB55 and MB21 cells); assay: Acquired resistance in medulloblastoma cell lines; assay type: cell-based, mouse; settings: TBB 50 uM
Experimental: Medulloblastoma cell lines (MB53, MB55 and MB21 cells) were cultured in Neurobasal (Life Technologies 10888-022)+B27 supplement (Invitrogen 17504044)+DMSO (0.1%), CX-4945 (10 uM) or TBB (50 uM). […] Primer sequences are provided in supplemental table 5.

[5] = tested on: Ptch+/−; Trp53−/− MB flank allografts; assay: Flank allograft study, Ptch+/−; Trp53−/− MB; assay type: in vivo, mouse; settings: TBB 30 mg/kg IP BID; effect as early as 3 days after initiating treatment; vs vehicle control
Experimental: In vivo efficacy studies were performed in accordance with protocols approved by the Institutional Animal Care and Use Committee at Stanford University. SmoWT-MB and Smo[…]-MB cells isolated from either parental SmoWT or Smo[…] mouse Ptch^+/-; p53^-/- MB hind-flank allografts were kindly provided by Charles Rudin (Memorial Sloan-Kettering Cancer Center). Ptch+/-; Tpr53-/-, or, Ptch+/-; Tpr53-/-; Smo[…] MB cells were mixed 1:1 with matrigel and 10^7 cells were injected into both flanks of a Nu/Nu mouse. Once tumors reached 225-275 mm^3, mice were randomized to treatment vs. control groups. Treatment groups received 30 mg/kg IP BID of TBB (reconstituted in DMSO at 50 ug/uL), or 37.5 mg/kg IP BID of GDC-0449 (reconstituted in DMSO at 62.5 ug/uL). Control mice were treated with an equivalent volume of DMSO. Corn oil was used in all groups to a total volume of 180 uL/injection and all doses were given with a 28 g insulin syringe. Tumors were measured and mice were weighed daily. Once tumors reached 1.5 cm^2 or met institutional euthanasia criteria, mice were sacrificed and tumors were harvested. Growth curves were generated using GraphPad Prism and significance was measured by two-way ANOVA.

[6] = NIH 3T3's following Hh stimulation

Question: Which results are given for `Brc1c(Br)c(Br)c2[nH]nnc2c1Br` [TBB, 4,5,6,7-tetrabromo-2H-benzotriazole]?
Answer: GNP-dependent foliary width [1]: decrease; apoptosis [1]: no significant change; cerebellar size [1]: decrease; foliary length [1]: no significant change; number of ATOH-1 positive proliferating GNPs [1]: decrease; rate of differentiation [1]: no significant change; Gli2 transcript levels [2, 6]: effective at decreasing; Ptch transcript levels [2, 6]: effective at decreasing; Gli1 mRNA levels ([2]; SHH ligand-induced NIH 3T3 cells, as early as 4 h post exposure): inhibited; also recorded: dramatic decrease; also recorded: loss of Gli1 induction; Gli1 transcript levels (Hh signaling in GNPs): no change; Gli2 transcript levels (Hh signaling in GNPs): effective at decreasing; Ptch transcript levels (Hh signaling in GNPs): effective at decreasing; cell viability [3]: decreased; also recorded: dose dependent tumoricidal effects; surviving cells after 2 weeks of culture with drug [4]: MB55 TBB treated (50 uM) cells remained; MB flank allograft growth [5]: significant inhibition; also recorded: decreased growth
